PubChem BioAssay (NCI)
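Values below derive from 48-hour exposures of cells grown in 96-well plates, with endpoints linearly interpolated between the two concentrations bracketing the appropriate inhibition level. GI50: concentration for 50% inhibition of growth. TGI: total growth inhibition.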

Key:
Assay in all cases: NCI tumour cell line growth inhibition, 48 h
HCT-116 colon = tested on: HCT-116 colon
HCC-2998 colon = tested on: HCC-2998 colon
MOLT-4 leukemia = tested on: MOLT-4 leukemia
HS 578T breast = tested on: HS 578T breast
IGROV1 ovarian = tested on: IGROV1 ovarian
UACC-62 melanoma = tested on: UACC-62 melanoma
EKVX NSCLC = tested on: EKVX NSCLC
UO-31 renal = tested on: UO-31 renal
OVCAR-3 ovarian = tested on: OVCAR-3 ovarian
NCI/ADR-RES ovarian = tested on: NCI/ADR-RES ovarian
CAKI-1 renal = tested on: CAKI-1 renal
HOP-92 NSCLC = tested on: HOP-92 NSCLC
NCI-H522 lung = tested on: NCI-H522 lung
PC-3 prostate = tested on: PC-3 prostate
A549 NSCLC = tested on: A549 NSCLC
OVCAR-8 ovarian = tested on: OVCAR-8 ovarian
COLO 205 colon = tested on: COLO 205 colon
CCRF-CEM leukemia = tested on: CCRF-CEM leukemia
SF-295 CNS = tested on: SF-295 CNS
MDA-MB-468 breast = tested on: MDA-MB-468 breast
M14 melanoma = tested on: M14 melanoma
OVCAR-4 ovarian = tested on: OVCAR-4 ovarian
SW-620 colon = tested on: SW-620 colon
SNB-75 CNS = tested on: SNB-75 CNS
KM12 colon = tested on: KM12 colon
OVCAR-5 ovarian = tested on: OVCAR-5 ovarian
786-0 renal = tested on: 786-0 renal
SK-MEL-5 melanoma = tested on: SK-MEL-5 melanoma
DU-145 prostate = tested on: DU-145 prostate
ACHN renal = tested on: ACHN renal
HCT-15 colon = tested on: HCT-15 colon
HOP-62 NSCLC = tested on: HOP-62 NSCLC
NCI-H23 lung = tested on: NCI-H23 lung
MALME-3M melanoma = tested on: MALME-3M melanoma
K-562 leukemia = tested on: K-562 leukemia
HL-60(TB) leukemia = tested on: HL-60(TB) leukemia
SN12C renal = tested on: SN12C renal
SR leukemia = tested on: SR leukemia
MDA-MB-231 breast = tested on: MDA-MB-231 breast
MDA-MB-435 = tested on: MDA-MB-435
NCI-H460 lung = tested on: NCI-H460 lung
NCI-H226 lung = tested on: NCI-H226 lung
SF-539 CNS = tested on: SF-539 CNS
HT29 colon = tested on: HT29 colon
UACC-257 melanoma = tested on: UACC-257 melanoma
SK-MEL-28 melanoma = tested on: SK-MEL-28 melanoma
SK-MEL-2 melanoma = tested on: SK-MEL-2 melanoma
BT-549 breast = tested on: BT-549 breast
T-47D breast = tested on: T-47D breast
SNB-19 CNS = tested on: SNB-19 CNS
SK-OV-3 ovarian = tested on: SK-OV-3 ovarian
A498 renal = tested on: A498 renal
MCF7 breast = tested on: MCF7 breast
RPMI-8226 leukemia = tested on: RPMI-8226 leukemia
LOX IMVI melanoma = tested on: LOX IMVI melanoma
TK-10 renal = tested on: TK-10 renal
SF-268 CNS = tested on: SF-268 CNS
U251 CNS = tested on: U251 CNS

`C[C@H]1[C@H](OC(=O)CCC(=O)N(CCCc2cn(-c3ccc(CN4CCOCC4)cc3)nn2)CCNc2ccnc3cc(Cl)ccc23)O[C@@H]2OC3(C)CC[C@H]4[C@H](C)CC[C@@H]1[C@@]24OO3` showed a GI50 (HCT-116 colon) of 372 nM, a TGI (HCT-116 colon) of 2680 nM and a GI50 (HCC-2998 colon) of 3130 nM. It also gave a TGI (HCC-2998 colon) greater than 11800 nM, a GI50 (MOLT-4 leukemia) of 317 nM and a TGI (MOLT-4 leukemia) of 3270 nM. For the same molecule, the GI50 (HS 578T breast) was 1230 nM, the TGI (HS 578T breast) was 8090 nM and the GI50 (IGROV1 ovarian) was 3730 nM. The TGI (IGROV1 ovarian) was greater than 11800 nM, the GI50 (UACC-62 melanoma) was 1150 nM and the TGI (UACC-62 melanoma) was greater than 11800 nM. The GI50 (EKVX NSCLC) was 1080 nM, the TGI (EKVX NSCLC) was greater than 11800 nM and the GI50 (UO-31 renal) was 1980 nM. For the same molecule, the TGI (UO-31 renal) was greater than 11800 nM, the GI50 (OVCAR-3 ovarian) was 681 nM and the TGI (OVCAR-3 ovarian) was greater than 11800 nM. The GI50 (NCI/ADR-RES ovarian) was 2640 nM, the TGI (NCI/ADR-RES ovarian) was greater than 11800 nM and the GI50 (CAKI-1 renal) was 4560 nM. The TGI (CAKI-1 renal) was greater than 11800 nM, the GI50 (HOP-92 NSCLC) was 506 nM and the TGI (HOP-92 NSCLC) was 4650 nM. For the same molecule, the GI50 (NCI-H522 lung) was 505 nM, the TGI (NCI-H522 lung) was greater than 11800 nM and the GI50 (PC-3 prostate) was 234 nM. It also gave a TGI (PC-3 prostate) greater than 11800 nM, a GI50 (A549 NSCLC) of 3250 nM and a TGI (A549 NSCLC) greater than 11800 nM. For the same molecule, the GI50 (OVCAR-8 ovarian) was 801 nM, the TGI (OVCAR-8 ovarian) was greater than 11800 nM and the GI50 (COLO 205 colon) was 623 nM. It also gave a TGI (COLO 205 colon) greater than 11800 nM, a GI50 (CCRF-CEM leukemia) of 1020 nM and a TGI (CCRF-CEM leukemia) greater than 11800 nM. It also gave a GI50 (SF-295 CNS) of 2470 nM, a TGI (SF-295 CNS) greater than 11800 nM and a GI50 (MDA-MB-468 breast) of 943 nM. The TGI (MDA-MB-468 breast) was 4920 nM, the GI50 (M14 melanoma) was 1590 nM and the TGI (M14 melanoma) was 3450 nM. The GI50 (OVCAR-4 ovarian) was 869 nM, the TGI (OVCAR-4 ovarian) was greater than 11800 nM and the GI50 (SW-620 colon) was 533 nM. For the same molecule, the TGI (SW-620 colon) was greater than 11800 nM, the GI50 (SNB-75 CNS) was 11600 nM and the TGI (SNB-75 CNS) was greater than 11800 nM. It also gave a GI50 (KM12 colon) of 596 nM, a TGI (KM12 colon) greater than 11800 nM and a GI50 (OVCAR-5 ovarian) of 1310 nM. The TGI (OVCAR-5 ovarian) was greater than 11800 nM, the GI50 (786-0 renal) was 1530 nM and the TGI (786-0 renal) was 3540 nM. It also gave a GI50 (SK-MEL-5 melanoma) of 1190 nM, a TGI (SK-MEL-5 melanoma) of 2580 nM and a GI50 (DU-145 prostate) of 6840 nM. For the same molecule, the TGI (DU-145 prostate) was greater than 11800 nM, the GI50 (ACHN renal) was 2740 nM and the TGI (ACHN renal) was greater than 11800 nM. For the same molecule, the GI50 (HCT-15 colon) was 389 nM, the TGI (HCT-15 colon) was 4190 nM and the GI50 (HOP-62 NSCLC) was 10800 nM. The TGI (HOP-62 NSCLC) was greater than 11800 nM, the GI50 (NCI-H23 lung) was 2280 nM and the TGI (NCI-H23 lung) was greater than 11800 nM. For the same molecule, the GI50 (MALME-3M melanoma) was 1510 nM, the TGI (MALME-3M melanoma) was 3040 nM and the GI50 (K-562 leukemia) was 330 nM. It also gave a TGI (K-562 leukemia) of 2390 nM, a GI50 (HL-60(TB) leukemia) of 359 nM and a TGI (HL-60(TB) leukemia) of 1440 nM. The GI50 (SN12C renal) was 2980 nM, the TGI (SN12C renal) was greater than 11800 nM and the GI50 (SR leukemia) was 408 nM. The TGI (SR leukemia) was 2470 nM, the GI50 (MDA-MB-231 breast) was 3050 nM and the TGI (MDA-MB-231 breast) was greater than 11800 nM. The GI50 (MDA-MB-435) was 800 nM, the TGI (MDA-MB-435) was 8910 nM and the GI50 (NCI-H460 lung) was 2200 nM. It also gave a TGI (NCI-H460 lung) of 9500 nM, a GI50 (NCI-H226 lung) of 2540 nM and a TGI (NCI-H226 lung) greater than 11800 nM. It also gave a GI50 (SF-539 CNS) of 1590 nM, a TGI (SF-539 CNS) of 3230 nM and a GI50 (HT29 colon) of 745 nM. For the same molecule, the TGI (HT29 colon) was 3880 nM, the GI50 (UACC-257 melanoma) was 1190 nM and the TGI (UACC-257 melanoma) was 2820 nM. The GI50 (SK-MEL-28 melanoma) was 1430 nM, the TGI (SK-MEL-28 melanoma) was 3620 nM and the GI50 (SK-MEL-2 melanoma) was 3160 nM. For the same molecule, the TGI (SK-MEL-2 melanoma) was greater than 11800 nM, the GI50 (BT-549 breast) was 899 nM and the TGI (BT-549 breast) was 8420 nM. The GI50 (T-47D breast) was 460 nM, the TGI (T-47D breast) was greater than 11800 nM and the GI50 (SNB-19 CNS) was 7350 nM. The TGI (SNB-19 CNS) was greater than 11800 nM, the GI50 (SK-OV-3 ovarian) was greater than 11800 nM and the TGI (SK-OV-3 ovarian) was greater than 11800 nM. For the same molecule, the GI50 (A498 renal) was greater than 11800 nM, the TGI (A498 renal) was greater than 11800 nM and the GI50 (MCF7 breast) was 821 nM. The TGI (MCF7 breast) was greater than 11800 nM, the GI50 (RPMI-8226 leukemia) was 406 nM and the TGI (RPMI-8226 leukemia) was 5620 nM. For the same molecule, the GI50 (LOX IMVI melanoma) was 692 nM, the TGI (LOX IMVI melanoma) was 3540 nM and the GI50 (TK-10 renal) was 11700 nM. The TGI (TK-10 renal) was greater than 11800 nM, the GI50 (SF-268 CNS) was 2720 nM and the TGI (SF-268 CNS) was greater than 11800 nM. The GI50 (U251 CNS) was 1420 nM and the TGI (U251 CNS) was 8270 nM.
